Source: patent US12661410B2, “Compounds for targeted degradation of RET” (C4 Therapeutics, Inc., priority 2020, dated 2026)
Substitutions are numbered along the chain they refer to. Where two headings read alike, the source gives them in different places.

What was measured:
RET(KD: 658-1114 G810R) = target: T1, RET(KD: 658-1114 G810R) (Homo sapiens, UniProt P07949, G810R); experiment: HiBiT-Degradation, RET G810R degradation assay (Nano-Glo HiBiT Lytic), 293T.165 cells; format: cell-based; conditions: for Emax / DC50: 6.0 hours
T1 construct: 658-1114; expressed in transfected cells; host or cells: 293T.165 (293T cells, generated in-house)
T1 sequence (P07949 658-1114 G810R): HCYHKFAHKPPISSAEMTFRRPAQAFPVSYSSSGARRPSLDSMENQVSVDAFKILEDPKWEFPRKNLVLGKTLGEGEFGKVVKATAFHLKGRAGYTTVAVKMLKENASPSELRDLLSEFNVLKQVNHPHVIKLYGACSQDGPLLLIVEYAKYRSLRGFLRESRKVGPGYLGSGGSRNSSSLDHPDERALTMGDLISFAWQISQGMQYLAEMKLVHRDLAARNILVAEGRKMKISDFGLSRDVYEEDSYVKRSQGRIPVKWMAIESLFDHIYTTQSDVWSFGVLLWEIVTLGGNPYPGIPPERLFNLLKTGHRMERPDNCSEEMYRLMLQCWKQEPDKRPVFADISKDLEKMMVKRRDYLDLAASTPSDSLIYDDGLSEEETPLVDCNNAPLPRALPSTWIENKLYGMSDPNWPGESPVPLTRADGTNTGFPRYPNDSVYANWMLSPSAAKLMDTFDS
Method in brief: (§1)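 Engineered 293T cells carry a HiBiT tag on the RET kinase domain, either wild type (line 293T.144) or G810R (line 293T.165). Compounds act for 6 h across a 10 μM-top, half-log 11-point range. Lytic HiBiT luminescence gives remaining protein, fitted for DC50 and Emax.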

RET (658-1114) = target: T2, RET (658-1114) (Homo sapiens, UniProt P07949); experiment: HiBiT-Degradation, RET wild-type degradation assay (Nano-Glo HiBiT Lytic), 293T.144 cells; format: cell-based; conditions: RET wild-type; for DC50 / Emax: 6.0 hours; for DC50: read-out: HiBiT-Degradation 293T.144 RET (658-1114) 6.0 hours (DC50); for Emax: read-out: HiBiT-Degradation 293T.144 RET (658-1114) 6.0 hours (Emax)
T2 construct: 658-1114; expressed in transfected cells; host or cells: 293T.144 (293T cells, generated in-house)
T2 sequence (P07949 658-1114): T1 sequence (P07949 658-1114 G810R) with R153G
Method in brief: as §1

[1] = % remaining protein, read-out: 293T.165 RET(KD: 658-1114 G810R) 6.0 hours (Emax)
[2] = half-maximal degradation concentration, read-out: 293T.165 RET(KD: 658-1114 G810R) 6.0 hours (DC50)
[3] = RET G810R, read-out: HiBiT-Degradation 293T.165 RET(KD: 658-1114 G810R) 6.0 hours (DC50)
[4] = RET G810R, read-out: HiBiT-Degradation 293T.165 RET(KD: 658-1114 G810R) 6.0 hours (Emax)

| Emax (RET(KD: 658-1114 G810R); [1]) [%] | DC50 (RET(KD: 658-1114 G810R); [2]) [nM] | HiBiT-Degradation 293T.165 RET(KD: 658-1114 G810R) 6.0 hours (IP) [nM] (RET(KD: 658-1114 G810R); RET G810R) | DC50 (RET(KD: 658-1114 G810R); [3]) [nM] | Emax (RET(KD: 658-1114 G810R); [4]) [%] | HiBiT-Degradation 293T.144 RET (658-1114) 6.0 hours (IP) [nM] (RET (658-1114)) | DC50 (RET (658-1114)) [nM] | Emax (RET (658-1114)) [%] | Structure (SMILES) |
| --- | --- | --- | --- | --- | --- | --- | --- | --- |
| < 30 | < 50 | ++++ (< 50 nM = ++++) | < 50 | < 30 | ++++ (< 50 nM = ++++) | < 50 | < 30 | N#Cc1cnn2cc(-c3ccc(N4CCN(C(=O)CN5CCC(c6ccc(NC7CCC(=O)NC7=O)cc6)CC5)CC4)cc3)cc(-c3ccc(N4CCN(C(=O)Cc5ccc(F)cn5)CC4)nc3)c12 (stereo not drawn) [Compound 74, 6-[4-[4-[2-[4-[4-[(2,6-dioxo-3-piperidyl)amino]phenyl]-1-piperidyl]acetyl]piperazin-1-yl]phenyl]-4-[6-[4-[2-(5-fluoro-2-pyridyl)acetyl]piperazin-1-yl]-3-pyridyl]pyrazolo[1,5-a]pyridine-3-carbonitrile] |
| < 30 | < 100 | +++ (<100 nM = +++) | < 100 | < 30 | ++++ (< 50 nM = ++++) | < 50 | < 30 | N#Cc1cnn2cc(-c3cnn(C4CC5(C4)CN(C(=O)CN4CCC(c6ccc(NC7CCC(=O)NC7=O)cc6F)CC4)C5)c3)cc(-c3ccc(N4CCN(Cc5ccccn5)CC4)nc3)c12 (stereo not drawn) [Compound 76, 6-[1-[2-[2-[4-[4-[(2,6-dioxo-3-piperidyl)amino]-2-fluoro-phenyl]-1-piperidyl]acetyl]-2-azaspiro[3.3]heptan-6-yl]pyrazol-4-yl]-4-[6-[4-(2-pyridylmethyl)piperazin-1-yl]-3-pyridyl]pyrazolo[1,5-a]pyridine-3-carbonitrile] |
| < 50 | < 100 | ++++ (< 50 nM = ++++) | < 100 | < 50 | ++++ (< 50 nM = ++++) | < 50 | < 30 | N#Cc1cnn2cc(-c3cnn(C4CCN(C(=O)NC5CCN(c6ccc(NC7CCC(=O)NC7=O)cc6F)CC5)CC4)c3)cc(-c3ccc(N4CCN(Cc5ccccn5)CC4)nc3)c12 (stereo not drawn) [Compound 77, 4-[4-[3-cyano-4-[6-[4-(2-pyridylmethyl)piperazin-1-yl]-3-pyridyl]pyrazolo[1,5-a]pyridin-6-yl]pyrazol-1-yl]-N-[1-[4-[(2,6-dioxo-3-piperidyl)amino]-2-fluoro-phenyl]-4-piperidyl]piperidine-1-carboxamide] |
| < 30 | < 100 | ++++ (< 50 nM = ++++) | < 100 | < 30 | ++++ (< 50 nM = ++++) | < 50 | < 30 | COCC1(Cc2ccccn2)CCN(c2ccc(-c3nc(-c4cnn(C5CCN(C(=O)CN6CCC(c7ccc(NC8CCC(=O)NC8=O)cc7F)CC6)CC5)c4)cn4ncc(C#N)c34)cn2)CC1 (stereo not drawn) [Compound 78, 6-[1-[1-[2-[4-[4-[(2,6-dioxo-3-piperidyl)amino]-2-fluoro-phenyl]-1-piperidyl]acetyl]-4-piperidyl]pyrazol-4-yl]-4-[6-[4-(methoxymethyl)-4-(2-pyridylmethyl)-1-piperidyl]-3-pyridyl]pyrazolo[1,5-a]pyrazine-3-carbonitrile] |
| < 30 | < 50 | ++++ (< 50 nM = ++++) | < 50 | < 30 | ++++ (< 50 nM = ++++) | < 50 | < 30 | CCC1(C(=O)NC2CCC2)CCN(c2ccc(-c3nc(-c4cnn(C5CCN(C(=O)CC6(O)CCN(c7ccc(NC8CCC(=O)NC8=O)cc7F)CC6)CC5)c4)cn4ncc(C#N)c34)cn2)CC1 (stereo not drawn) [Compound 81, 1-[5-[3-cyano-6-[1-[1-[2-[1-[4-[(2,6-dioxo-3-piperidyl)amino]-2-fluoro-phenyl]-4-hydroxy-4-piperidyl]acetyl]-4-piperidyl]pyrazol-4-yl]pyrazolo[1,5-a]pyrazin-4-yl]-2-pyridyl]-N-cyclobutyl-4-ethyl-piperidine-4-carboxamide] |
| < 30 | < 100 | ++++ (< 50 nM = ++++) | < 100 | < 30 | ++++ (< 50 nM = ++++) | < 50 | < 30 | CC(C)NC(=O)C1(C)CCN(c2ccc(-c3cc(-c4cnn(CCCCCCN5CCC(c6ccc7c(N8CCC(=O)NC8=O)nn(C)c7c6)CC5)c4)cn4ncc(C#N)c34)cn2)CC1 [Compound 82, 1-[5-[3-cyano-6-[1-[6-[4-[3-(2,4-dioxohexahydropyrimidin-1-yl)-1-methyl-indazol-6-yl]-1-piperidyl]hexyl]pyrazol-4-yl]pyrazolo[1,5-a]pyridin-4-yl]-2-pyridyl]-N-isopropyl-4-methyl-piperidine-4-carboxamide] |
| < 50 | < 100 | ++++ (< 50 nM = ++++) | < 100 | < 50 | ++++ (< 50 nM = ++++) | < 50 | < 30 | CN(Cc1ccc(-c2cn3ncc(C#N)c3c(-c3ccc(N4CCN(Cc5ccccn5)CC4)nc3)n2)cc1)C(=O)CN1CCC(c2ccc(NC3CCC(=O)NC3=O)cc2)CC1 (stereo not drawn) [Compound 83, N-[[4-[3-cyano-4-[6-[4-(2-pyridylmethyl)piperazin-1-yl]-3-pyridyl]pyrazolo[1,5-a]pyrazin-6-yl]phenyl]methyl]-2-[4-[4-[(2,6-dioxo-3-piperidyl)amino]phenyl]-1-piperidyl]-N-methyl-acetamide] |
| < 30 | < 100 | ++++ (< 50 nM = ++++) | < 100 | < 30 | ++++ (< 50 nM = ++++) | < 50 | < 30 | CCC1(C(=O)NC(C)C)CCN(c2ccc(-c3nc(-c4cnn(CC5CCN(C(=O)CC6(O)CCN(c7ccc(NC8CCC(=O)NC8=O)cc7F)CC6)CC5)c4)cn4ncc(C#N)c34)cn2)CC1 (stereo not drawn) [Compound 84, 1-[5-[3-cyano-6-[1-[[1-[2-[1-[4-[(2,6-dioxo-3-piperidyl)amino]-2-fluoro-phenyl]-4-hydroxy-4-piperidyl]acetyl]-4-piperidyl]methyl]pyrazol-4-yl]pyrazolo[1,5-a]pyrazin-4-yl]-2-pyridyl]-4-ethyl-N-isopropyl-piperidine-4-carboxamide] |
| < 50 | < 100 | ++++ (< 50 nM = ++++) | < 100 | < 50 | ++++ (< 50 nM = ++++) | < 50 | < 30 | CCC1(C(=O)NC(C)C)CCN(c2ccc(-c3nc(-c4cnn(C5CCN(C(=O)CC6(O)CCN(c7ccc(NC8CCC(=O)NC8=O)cc7)CC6)CC5)c4)cn4ncc(C#N)c34)cn2)CC1 (stereo not drawn) [Compound 85, 1-[5-[3-cyano-6-[1-[1-[2-[1-[4-[(2,6-dioxo-3-piperidyl)amino]phenyl]-4-hydroxy-4-piperidyl]acetyl]-4-piperidyl]pyrazol-4-yl]pyrazolo[1,5-a]pyrazin-4-yl]-2-pyridyl]-4-ethyl-N-isopropyl-piperidine-4-carboxamide] |
